From patent US20030219785A1, “Targeted drug delivery methods” (Vanderbilt University, priority 2002, published 2003)
“Also recorded” adds a separate entry of the source.

Key:
GL-261 tumors = assay: Tumor volume assessment, GL-261; assay type: in vivo, mouse; settings: group 3: cisplatin 0.08 mg tail vein days 1-4, no irradiation
Excerpt: H460 cell line forms tumor in nude mice. […] Forty mice bearing GI-261 tumors on their right hind limbs were divided eight groups (five mice per group). An equal number of large and intermediate size (11-15 mm) tumors were present in each group. The first group received no treatment as the control group. The second group received radiation therapy (3 Gy×2 fractions) on days 1 and 3. Irradiated mice were immobilized in […] chambers and the entire body was shielded with lead, except for tumor bearing hind limb. The third group received 0.08 mg/100 μl of cisplatin (Sigma) in PBS by tail vein injection on days 1, 2, 3 and 4. The forth group received 0.5 mg of nanomag beads-10 μg of WGA-0.08 mg cisplatin cocktail in 100 μl PBS by tail vein injection on days 1, 2, 3 and 4. The fifth group received irradiation of 3 Gy on days 1 and 3 and the same treatments as group 3 after irradiation on days 1, 2, 3 and 4. […] Tumors volumes were measured 3 times weekly using skim calipers as described previously (see […]., et al., Nat. Med. 1:786-791 (1995); Hanson, et al., Radiation Research 142:281-287 (1995)) starting on day 1 and ending on the eighth measurement, or when the tumor volume reached 5 times that of the beginning volumes. Data was calculated as the percentage of original (day 1) tumor volume and graphed as fractional tumor volume+/-standard deviation (SD) for each treatment group. […]

H460 tumors = assay: Tumor volume assessment, H460; assay type: in vivo, mouse; settings: irradiation 3 Gy x2 + cisplatin 0.08 mg days 1-4
Method: H460 cell line forms tumor in nude mice. […] Twenty mice bearing H460 tumors with a range of 10-13 mm of diameter on their right hind limbs were divided into four groups (five mice per group). The first group received no treatment as the control group. The second group received radiation therapy (3 Gy×2 fraction) on days 1 and 3. The third group received radiation as […] and 0.08 mg/100 μl of cisplatin in PBS by tail vein injection after irradiation on days 1, 2, 3 and 4. The forth group received radiation as […] and 0.5 mg of nanomag beads-10 μg of WGA-0.08 mg of cisplatin cocktail in 100 μl PBS by tail vein injection after irradiation on days 1, 2, 3 and 4 with 15 minutes of magnetic force field after each time injection. Tumors volumes were measured 3 times weekly using skim calipers as described previously (see […]., et al., Nat. Med. 1:786-791 (1995); Hanson, et al., Radiation Research 142:281-287 (1995)) starting on day 1 and ending on the eighth measurement, or when the tumor volume reached 5 times that of the beginning volumes. Data was calculated as the percentage of original (day 1) tumor volume and graphed as fractional tumor volume+/-standard deviation (SD) for each treatment group. […]

[1] = test system: endothelial cells of tumors; assay: Electron microscopy of WGA binding; assay type: in vivo
[2] = test system: inflamed irradiated vasculature of LLC tumor; assay: WGA-FITC binding in LLC tumor vascular window model; assay type: in vivo, mouse; settings: LLC window irradiated 2.5 Gy vs 0 Gy; 100 μl WGA-FITC tail vein; pictures 60 min after injection

Row | Compound | tumor growth delay (GL-261 tumors) | delay of tumor growth (H460 tumors) | location of WGA binding [1] | WGA-FITC binding to tumor vasculature [2]
1 | N.N.[Cl][Pt][Cl] [cisplatin] | 3 to 4 days | 11 days |  | 
2 | wheat germ agglutinin [WGA] |  |  | most WGA binding was located at endothelial intercellular gaps | efficiently and specifically bind; also recorded: much greater binding ability
